Experimental findings from patent US8222008B2, “Methods and compositions for treating cancer” (The Administrators of The Tulane Educational Fund, priority 2003, dated 2012) are described below.

What all share (assay type): cell-based, human
One assay relates to GM005399 cells. Kind of assay: Apoptosis on serum withdrawal, CaspACE. As to conditions: serum withdrawal and CDME. Here is the method: Induction of apoptosis and assays for its detection were performed using commercially available reagents. Normal and cystinotic fibroblasts were matched for passage number (±3) and cell density, and then exposed to an apoptotic trigger. One apoptotic trigger used was TNF-a (30 ng/mL) with actinomycin D (2.5 μg/mL) for 16 hours. Another trigger was anti-Fas antibody (500 ng/mL) with actinomycin D (2.5 μg/mL) for 16 hours. A third trigger to induce apoptosis in the cells was Ultraviolet B light (60 mJ). See, e.g., previously described protocols of Aggarwal B B, 1992 Immunol. Ser., 56:61-78; Higuchi M. et al, 1995 J. Immunol. Meth., 178:173-181; Itoh N, et al, 1991 Cell, 66:233-243; Itoh N. et al, 1993 J. Biol. Chem., 268:10932-10937. Serum withdrawal was also used as a apoptotic stimulus (Lieberthal W, et al, 1998 Am. J. Physiol. 275:F691-F702; Verzola D. et al, 2001 Exp Nephrol., 9:366-371; Iglesias J. et al, 1999 Am. J. Physiol. 277:F711-F712; Kulkarni G V, et al, 1994 J. Cell Sci., 107:1169-1179), in which case the cells were incubated in F12 medium without serum for 24 hours and then analyzed for apoptosis.
1. […] The cells were visually enumerated by fluorescence microscopy, scoring a minimum of five fields (250 to 300 cells) for fluorescence in triplicate followed by counting all cells in the same field by light microscopy, with a minimum of 750 cells scored per condition. […]

The test system of assay [1] is normal fibroblasts. Kind of assay: Lysosomal cystine content, cystine binding protein assay. Here is the method: Intracellular lysosomal free cystine was determined using a cystine binding protein (CBP) assay (Oshima et al, 1974 J. Biol. Chem., 249:6033-6039). CBP was procured from Riverside Scientific. The assay has a sensitivity of 0.1 μM. Total cell protein was determined by a modification of the Lowry method (Lowry O. et al 1951 J. Biol. Chem., 193:265-275). Statistical analyses were performed using paired t test for means with SSPS for Windows. Results are mean+/−1.0 SD (FIG. 3).
(§1) Normal fibroblast lysosomes were loaded with cystine by the addition of 0.5 mM cystine dimethylester (CDME, Sigma) to normal culture medium for 1 hour before treatment (Pisoni, R L, et al, 1992 Somat. Cell. Mol. Genet., 18:1-6). The cells were treated with apoptotic triggers, leaving CDME in the medium to prevent lysosomal cystine loss, and then analyzed for apoptosis.
(§2) The lysosomal cystine content of normal fibroblasts was also altered as follows. Normal fibroblasts also at passage 7-13 were pretreated with 0.5 mM CDME for 1 hour, increasing the cystine content of their lysosomes to the cystinotic range (0.47 to 1.95 nmol of cystine per mg of protein). […]
In another experiment, the cystine content was decreased in cystinotic cells from 2.3 to 0.5 nmols cystine/10^6 cells by pretreatment with MEA before incubation in cystine-free and serum-free Ham F12 medium. […] Cells were stained with CaspACE and analyzed. […]

The subject of the next assay is RPTE cells. The assay is described as follows: Annexin V and propidium iodide staining. As to conditions: TNF-a after loading with 0.1 mM CDME. Here is the method: 3. The Annexin V Assay • Annexin V-propidium iodide (PI) staining was performed as described by the manufacturer (Annexin V Fluos kit directions, Roche Laboratories) one time after TNF-a stimulation. D. Cystine Binding Protein Assay
Lysosomal cystine loading of RPTE cells was accomplished by exposure to 0.1 mM or 0.25 CDME in normal REGM for 1 hour before treatment with or without apoptotic triggers.
Exposure of RPTE cells to TNF-a after cystine loading by exposure to 0.1 mM CDME and analysis by Annexin V and Propidium iodide staining yielded 4.3% Annexiv V positive cells and zero PI positive cells at 1 h after exposure, 9.5% and 1.7% at 3 hours and 25.3% and 9.1% at 6 hours. The proportion of necrotic RPTE cells increased with duration of exposure to CDME, but remained substantially less than the number of those that are apoptotic.

Assay [2] has as its system normal fibroblasts. The assay is described as follows: Apoptosis after lysosomal cystine loading, CaspACE assay (FIG. 1). As to conditions: 0.5 mM CDME 1 hour pretreatment, then TNF-a or UV, 16 hours in CDME-containing medium; control rate 7.2+/−1.3%. Here is the method:
1. The CaspACE Assay • CaspACE (Promega) is an FITC-conjugated cell-permeable form of the pan-caspase inhibitor zVAD-Fmk, which binds to activated caspase(s). Cells were incubated in FITC-VAD-Fmk-containing medium (10 μM for 30 minutes at 37° C.), washed, and then fixed in 10% buffered formalin (30 minutes at room temperature) before analysis. The cells were visually enumerated by fluorescence microscopy, scoring a minimum of five fields (250 to 300 cells) for fluorescence in triplicate followed by counting all cells in the same field by light microscopy, with a minimum of 750 cells scored per condition. The apoptosis rate is the total number of cells that fluoresce divided by the total cells in the field.
as §1, §2

In the case of `COC(=O)[C@@H](N)CSSC[C@H](N)C(=O)OC` [CDME, cystine dimethyl ester], in the assay with GM005399 cells, the “% Apoptosis” value is listed as 37.3%. The “cystine content after treatment with CDME” value with normal fibroblasts [1] (increased from 0.4, before serum withdrawal) is 1.3 nmols cystine/10^6 cells. Moreover, the “cystine content after pre-exposure to CDME” value in the assay on normal fibroblasts [1] (normal content <0.1 nmol/mg protein, UV light experiment) amounted to 1.95 nmol/mg protein. Moreover, the “Annexin V positive cells” value in the assay on RPTE cells (1 h after exposure) stood at 4.3%; with RPTE cells (3 hours) it was 9.5%; in the assay with RPTE cells (6 hours), 25.3%. Besides, the PI positive cells result is “zero” in the assay with RPTE cells (1 h after exposure), 1.7% in the assay with RPTE cells (3 hours) and 9.1% with RPTE cells (6 hours). Further, in the assay with normal fibroblasts [2], the “apoptotic rate after exposure to CDME” value was 18.7+/−5.4%.
